Counter-ions that a name gives are not always drawn.

Here are results for 4 molecules from US9718806B2, “Quinazoline inhibitors of activating mutant forms of epidermal growth factor receptor” (AstraZeneca AB, priority 2013, dated 2017).

Data set [1] is described as follows: Assay 2: brain blood barrier penetration assay (short oral absorption model plus in vitro blood and brain binding). It counts as in vivo. Particulars: rat, male Han Wistar rats, oral 2 mg/kg, Kp,uu=AUC (brain)/AUC (blood)×(fu,brain/fu.blood). How it is done: Assay 2: Brain Blood Barrier Penetration Assay
It is believed that Kp,uu, the relationship between concentrations of unbound drug in brain and in blood, is the key to prediction of CNS action and should be the main parameter measured and optimized for in drug discovery (Di L et al., Journal of Medicinal Chemistry [2013], 56: 2-12).
In vitro blood and brain binding assay was carried out on a HT-Dialysis plate (Gales Ferry, Conn.) with semi-permeable membrane. Diluted blood (1:1 with DPBS pH7.4) and brain homogenate (1:3 with DPBS pH7.4) were spiked with 5 μM test compound (in triplicate) and dialyzed against equal volume of 150 μL 100 mM PBS buffer (pH7.4) at 37° C. for 4 hours in a slowly rotated plate. At the end of incubation, a 50 μL aliquot from the receiver side and a 5 μL from the donor chamber were taken. The 5 μL sample was further diluted with 45 μL of blank blood or brain homogenate. Paired samples were matrix-matched with either buffer or blank blood/brain homogenate and mixed for 2 min, and then precipitated with 150 μL cold acetonitrile with 100 ng/mL tolbutamide as internal standard. After centrifuging at 4000 rpm for 20 min, supernatant was diluted with 0.1% formic acid aqueous solution and analyzed for LC/MS/MS (API 4000, Applied Biosystems, Foster City). […]. D is dilution factor.
A Short oral absorption (SOA) model is an in-vivo screening model to identify brain penetration of a compound. […]
Standards were prepared by spiking blank blood, brain homogenate and artificial CSF covering 0.2 to 500 ng/mL. […] After 2 min vortex and 5 min centrifugation at 14,000 rpm, supernatant was analyzed by LC/MS/MS (API 4000, Applied Biosystems, Foster City). […] For brain and CSF samples, one standard curve was analyzed along with test samples.
Total brain levels, expressed as brain/blood ratio (Kp) were measured by AUCbrain/AUCblood in rodents after oral administration. Free fraction of test compound in biological matrix was determined by in vitro blood and brain binding assay. Kp,uu was calculated by the following equation: Kp,uu=AUC (brain)/AUC (blood)×(fu,brain/fu.blood).

For data set [2], the system named is endogenous p-EGFR. The data set can be described thus: Assay 1: cellular phosphorylation assay, overall statement. Particulars: Assay 1, statement on the table. It counts as cell-based, human. From the text: Assay 1: Cellular Phosphorylation Assay
The human lung cell line NCI-H3255 (L858R) was obtained from the American Type Culture Collection. The NCI-H3255 cells were maintained in BEBM media (Lonza; CC-3171), containing 10% fetal bovine serum (FBS) (Gibco; 10099-141), supplemented with BEGM kit (Lonza; CC-4175). The human lung cell line PC-9 (Exon 19 deletion EGFR) was obtained from the American Type Culture Collection. PC-9 cells were maintained in RPMI 1640 (Gibco; 22400-089), containing 10% fetal bovine serum. The human lung cell line NCI-H838 (EGFR wild type) was obtained from the American Type Culture Collection. NCI-H838 cells were maintained in RPMI 1640 (Gibco; 22400-089), containing 10% fetal bovine serum.
All cells were grown in a humidified incubator at 37° C. with 5% CO2. Assays to measure cellular phosphorylation of endogenous p-EGFR in cell lysates were carried out according to the protocol described in the PathScan® Phospho-EGF Receptor (Tyr1068) Sandwich ELISA Kit (Cell Signalling kit catalogue number #7240).
100 μL of cells were seeded (32000 cells/well) in RPMI 1640+1% fetal bovine serum in Corning Costar, 96 well cell culture plates and incubated at 37° C. with 5% CO2 overnight. Cells were acoustically dosed using a […], with compounds serially diluted in 100% DMSO. Cell plates were incubated for a further 4 h after the compounds were added, (for NCI-H838: rhEGF (R&D catalogue number#236-EG) was added to cell plate with final concentration 100 ng/ml rhEGF to stimulate 5 minutes), then following aspiration of medium, 110 μL IP lysis buffer (IP lysis buffer: add 1:100 phosphatase inhibitor cocktail 2&3 (Sigma catalogue number P5726&P0044), 1:100 protease inhibitor cocktail (Sigma catalogue number P8340) to Pierce IP lysis buffer (Thermo catalogue number #87788)) was added to each well. The plates were put at 4° C. with rotation 300 rpm for 0.5-1 hour. […] 100 μl stop solution (Cell Signalling kit catalogue number#7240) was added to the plates and absorbance read at 450 nm within 30 minutes on SpectraMax M5e plate reader. […]

Consider `CNC(=O)CN1CCC(Oc2cc3c(Nc4cccc(Cl)c4F)ncnc3cc2OC)CC1` [sapitinib, reference compound], for which, in data set [1] (brain / blood (unbound)), the Kp uu was 0.12.

For `COc1cc2ncnc(Nc3cccc(Cl)c3F)c2cc1OC(=O)N1CCN(C)C[C@@H]1C` [Example 3, 4-[(3-Chloro-2-fluorophenyl)amino]-7-methoxyquinazolin-6-yl (2S)-2,4-dimethylpiperazine-1-carboxylate], the Kp uu in data set [1] (brain / blood (unbound)) was determined as 1.6. For the same molecule, the “potency compared with gefitinib and erlotinib” value in data set [2] was “comparable potency to gefitinib and erlotinib”.

Consider `COc1cc2ncnc(Nc3cccc(Cl)c3F)c2cc1OC(=O)N1CCN(C)C[C@H]1C` [Example 2, 4-[(3-Chloro-2-fluorophenyl)amino]-7-methoxyquinazolin-6-yl (2R)-2,4-dimethylpiperazine-1-carboxylate hydrochloride], for which the “potency compared with gefitinib and erlotinib” value in data set [2] was “comparable potency to gefitinib and erlotinib”.

With `COc1cc2ncnc(Nc3cccc(Cl)c3F)c2cc1OC(=O)N1CCN(C)C[C@H]1C` [Example 1, 4-[(3-Chloro-2-fluorophenyl)amino]-7-methoxyquinazolin-6-yl (2R)-2,4-dimethylpiperazine-1-carboxylate], the Kp uu in data set [1] (in vivo) was 1.3. For the same molecule, the “potency compared with gefitinib and erlotinib” value in data set [2] is “comparable potency to gefitinib and erlotinib”.
